In patent EP4653440A1, “HETEROCYCLIC COMPOUND, AND PHARMACEUTICAL COMPOSITION AND USE THEREOF” (Prime Gene Therapeutics Co., Ltd., priority 2023, dated 2024):
pIC50: −log10 of the molar value.

Key:
ROCK1 = ROCK1 (Homo sapiens, UniProt Q13464); experiment: ROCK1 kinase enzymatic activity (HTRF, STK2 substrate); assay type: biochemical; details: ROCK1 kinase reaction 20 minutes at room temperature
From the text: (§1) The kinase activity data was expressed by comparing the kinase activity of the test compound and that of the blank group (containing only DMSO), and the IC50 value was obtained by curve fitting using Prism software (GraphPad7.0).

ROCK2 = ROCK2 (Homo sapiens, UniProt O75116); experiment: ROCK2 kinase enzymatic activity (HTRF, STK2 substrate); assay type: biochemical; details: ROCK2 kinase reaction 30 minutes at room temperature
From the text: as §1

[1] = tested on: phosphorylation of myosin light chain T18/S19; experiment: In Cell Western for phosphorylation of myosin light chain in A7r5 cells; assay type: cell-based, rat; details: Rattus norvegicus, A7R5, 1 h
From the text: The rat smooth muscle cell line A7r5 was used, and the A7r5 cell culture conditions were DMEM containing 10% FBS. Phspho-MLC-T18/S19 specific antibody and a second detection antibody were used to detect the phosphorylation level of myosin light chain by In Cell Western. Cells treated with positive compounds were used as positive controls, while the group without compounds but with compound solvents was used as negative controls. DRAQ5 stained cell nuclei were used as internal references. GraphPad Prism 7.0 software was used, and fitting was carried out by using a non-linear regression curve with varying slopes to determine the absolute IC50 value.
On the first day, A7r5 cells were resuspended in serum-free medium and seeded into 384 wells of PDL coated transparent black plates at a density of 5000 cells per well. Serum starvation culture was performed for 4 hours, and the cells were incubated with the compound in serum-free medium for 1 hour. 50 µL of 8% PFA (polyformaldehyde) was added to each well and fixed at room temperature for 1 hour. The liquid in the wells was discard and 90 µL of ice methanol was added to each well to permeabilize the cells at 4 °C for 1 hour. Then, PBST (0.1% Tween20-PBS) was added using an automatic separator to wash three times. After patting the plate for drying, 50 µL blocking solution was added to each well for sealing at room temperature for 1 hour. The phspho-MLC-T18/S19 specific antibody was diluted with the blocking solution at a ratio of 1:200. After adding 20 µL to each well, incubation was carried out overnight at 4 °C with a sealed film.
On the second day, the liquid in the wells was discarded and PBST was added using an automatic separator to wash the plate 5 times. After patting the plate for drying, the second detection antibody was diluted with blocking solution at a ratio of 1:800 and DRAQ5 at a ratio of 1:1000. After adding 20 µL to each well, incubation was carried out at room temperature for 1 hour. Then, the liquid in the wells was discarded and PBST was added using an automatic separator to wash the plate 3 times, followed by adding ddH2O to wash the plate 3 times. After patting the plate for drying, it was scaned using a LICOR Odyssey near-infrared imaging scanner.

[2] = tested on: Norwegian rat glaucoma model induced by hypertonic saline solution; experiment: Norwegian rat glaucoma model induced by hypertonic saline solution (intraocular pressure); assay type: in vivo; details: 0.02% eye drops once a day, one drop; compared with model control group; 0 to 24 hours after administration
From the text: Experimental method: after animal anesthesia, the lateral canthus of the right eye was incised, and a polypropylene ring was placed at the equator of the eyeball, with the notch of the ring located in the upper quadrant of the eyeball, leaving only one scleral surface vein above. […] After injection, the polypropylene ring was removed and antibiotic eye ointment was applied to the operated eye.
After modeling, a rebound tonometer was used continuously to measure the intraocular pressure of both eyes, once every 3 days, and the average of 6 measurements was took each time and recorded; After the intraocular pressure had been stabilized (about 20 days later), the subjects were randomly divided into three groups based on the most recent measurement of intraocular pressure and body weight: sham surgery group, model control group, and test drug group (0.02% Example 29) group, with 5 animals in each group. After grouping, eye drops were administered once a day, with one drop per time. During the administration period, dynamic intraocular pressure was measured once a week (detecting the intraocular pressure change curve from 0 to 24 hours after administration) until the end of the experiment.

Chain of ROCK2 (O75116 whole entry): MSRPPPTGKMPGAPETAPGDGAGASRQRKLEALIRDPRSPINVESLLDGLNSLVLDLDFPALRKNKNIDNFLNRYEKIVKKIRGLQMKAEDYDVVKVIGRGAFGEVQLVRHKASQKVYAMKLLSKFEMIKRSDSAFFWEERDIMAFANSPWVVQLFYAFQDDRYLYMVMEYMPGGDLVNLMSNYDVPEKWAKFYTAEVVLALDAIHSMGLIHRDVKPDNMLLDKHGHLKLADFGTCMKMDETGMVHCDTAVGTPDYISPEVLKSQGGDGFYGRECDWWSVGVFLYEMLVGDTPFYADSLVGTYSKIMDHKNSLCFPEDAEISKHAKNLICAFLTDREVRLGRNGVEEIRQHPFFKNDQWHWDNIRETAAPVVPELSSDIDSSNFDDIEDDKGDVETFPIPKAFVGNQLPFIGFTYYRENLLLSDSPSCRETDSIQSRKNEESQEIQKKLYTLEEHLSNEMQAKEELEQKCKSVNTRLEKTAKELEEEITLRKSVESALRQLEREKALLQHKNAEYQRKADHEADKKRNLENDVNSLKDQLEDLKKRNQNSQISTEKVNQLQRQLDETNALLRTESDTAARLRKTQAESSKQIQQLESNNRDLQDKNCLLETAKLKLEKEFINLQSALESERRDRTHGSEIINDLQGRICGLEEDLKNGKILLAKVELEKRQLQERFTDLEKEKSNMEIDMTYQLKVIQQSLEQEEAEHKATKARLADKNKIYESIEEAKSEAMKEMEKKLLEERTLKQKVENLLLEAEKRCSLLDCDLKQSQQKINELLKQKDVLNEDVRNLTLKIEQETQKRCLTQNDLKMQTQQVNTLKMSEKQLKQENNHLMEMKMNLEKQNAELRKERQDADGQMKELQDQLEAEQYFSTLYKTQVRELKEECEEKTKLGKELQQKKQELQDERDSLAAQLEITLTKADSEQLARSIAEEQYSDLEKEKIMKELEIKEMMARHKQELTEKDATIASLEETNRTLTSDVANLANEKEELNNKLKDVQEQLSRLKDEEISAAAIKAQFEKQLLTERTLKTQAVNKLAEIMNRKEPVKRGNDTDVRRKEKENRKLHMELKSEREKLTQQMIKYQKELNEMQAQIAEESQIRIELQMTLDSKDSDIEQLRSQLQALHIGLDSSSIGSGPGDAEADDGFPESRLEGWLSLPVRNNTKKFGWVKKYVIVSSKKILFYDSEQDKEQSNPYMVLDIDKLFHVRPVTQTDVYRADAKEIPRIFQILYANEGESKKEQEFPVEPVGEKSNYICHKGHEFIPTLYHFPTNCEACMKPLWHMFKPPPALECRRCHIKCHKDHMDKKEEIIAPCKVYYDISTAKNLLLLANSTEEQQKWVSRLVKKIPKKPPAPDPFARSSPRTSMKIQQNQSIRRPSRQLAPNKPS
Chain of ROCK1 (Q13464 whole entry): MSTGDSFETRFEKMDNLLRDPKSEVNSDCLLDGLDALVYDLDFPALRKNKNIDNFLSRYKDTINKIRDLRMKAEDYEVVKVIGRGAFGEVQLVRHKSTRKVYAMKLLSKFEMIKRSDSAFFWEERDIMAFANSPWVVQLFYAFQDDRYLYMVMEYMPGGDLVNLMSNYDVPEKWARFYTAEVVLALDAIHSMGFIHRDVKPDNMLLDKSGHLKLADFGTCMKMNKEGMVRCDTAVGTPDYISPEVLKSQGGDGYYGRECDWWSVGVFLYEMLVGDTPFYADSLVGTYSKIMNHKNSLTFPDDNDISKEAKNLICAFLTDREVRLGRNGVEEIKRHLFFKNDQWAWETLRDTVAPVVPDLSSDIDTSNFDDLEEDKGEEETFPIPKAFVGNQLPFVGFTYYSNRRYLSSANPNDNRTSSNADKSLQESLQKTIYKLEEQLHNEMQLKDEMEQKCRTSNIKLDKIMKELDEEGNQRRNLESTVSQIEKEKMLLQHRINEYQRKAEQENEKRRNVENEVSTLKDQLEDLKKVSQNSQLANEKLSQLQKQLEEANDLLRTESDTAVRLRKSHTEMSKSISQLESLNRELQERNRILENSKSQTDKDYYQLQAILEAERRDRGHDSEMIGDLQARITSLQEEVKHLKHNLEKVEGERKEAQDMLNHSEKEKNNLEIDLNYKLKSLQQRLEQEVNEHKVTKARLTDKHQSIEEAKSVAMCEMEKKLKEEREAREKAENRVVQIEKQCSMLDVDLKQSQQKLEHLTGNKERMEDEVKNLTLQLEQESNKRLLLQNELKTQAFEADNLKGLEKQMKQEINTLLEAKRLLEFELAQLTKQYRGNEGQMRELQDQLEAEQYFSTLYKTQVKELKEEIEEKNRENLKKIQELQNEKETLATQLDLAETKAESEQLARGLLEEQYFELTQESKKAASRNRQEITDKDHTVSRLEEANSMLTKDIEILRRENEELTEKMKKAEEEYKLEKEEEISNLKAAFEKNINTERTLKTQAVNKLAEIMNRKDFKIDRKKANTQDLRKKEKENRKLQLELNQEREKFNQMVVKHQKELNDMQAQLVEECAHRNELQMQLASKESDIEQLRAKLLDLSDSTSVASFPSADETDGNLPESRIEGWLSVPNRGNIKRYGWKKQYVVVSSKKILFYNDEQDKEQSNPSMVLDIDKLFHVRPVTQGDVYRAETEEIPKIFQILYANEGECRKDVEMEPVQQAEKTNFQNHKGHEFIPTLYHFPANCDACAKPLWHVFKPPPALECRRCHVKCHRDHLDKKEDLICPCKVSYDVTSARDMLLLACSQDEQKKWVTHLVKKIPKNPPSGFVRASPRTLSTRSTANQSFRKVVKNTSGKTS

`N#CCC(C1CC2(CCCC2)C1)n1cc(-c2ncnc3[nH]ccc23)c(N)n1` (stereo not shown) [Example 22, 3-(3-amino-4-(7H-pyrrolo[2,3-d]pyrimidin-4-yl)-1H-pyrazol-1-yl)-3-(spiro[3.4]octan-2-yl)propionitrile] showed an IC50 (ROCK1) of under 5 nM, an IC50 (ROCK2) of under 5 nM and a pIC50 [1] of 6.58.
With `N#CCC(C1CCC2(CC2)C1)n1cc(-c2ncnc3[nH]ccc23)c(N)n1` (stereo not shown) [Example 23, 3-(3-amino-4-(7H-pyrrolo[2,3-d]pyrimidin-4-yl)-1H-pyrazol-1-yl)-3-(spiro[2.4]hept-5-yl)propionitrile] the IC50 (ROCK1) was under 5 nM, the IC50 (ROCK2) was under 5 nM and the pIC50 [1] was 6.71.
In the case of `N#CCC(C1CC2CC2C1)n1cc(-c2ncnc3[nH]ccc23)c(N)n1` (stereo not shown) [Example 24, 3-(3-amino-4-(7H-pyrrolo[2,3-d]pyrimidin-4-yl)-1H-pyrazol-1-yl)-3-(bicyclo[3.1.0]hexyl-3-yl)propionitrile], the IC50 (ROCK1) was under 5 nM, the IC50 (ROCK2) was under 5 nM and the pIC50 [1] was 6.67.
For `N#CC[C@H](C1CC1)n1cc(-c2ncnc3[nH]ccc23)c(N)n1` [Example 25, (R)-3-(3-amino-4-(7H-pyrrolo[2,3-d]pyrimidin-4-yl)-1H-pyrazol-1-yl)-3-cyclopropylpropionitrile], the IC50 (ROCK1) was under 5 nM, the IC50 (ROCK2) was under 2 nM and the pIC50 [1] was 7.12.
In the case of `N#CC[C@@H](C1CC1)n1cc(-c2ncnc3[nH]ccc23)c(N)n1` [Example 26, (S)-3-(3-amino-4-(7H-pyrrolo[2,3-d]pyrimidin-4-yl)-1H-pyrazol-1-yl)-3-cyclopropylpropionitrile], the IC50 (ROCK1) was under 5 nM, the IC50 (ROCK2) was under 2 nM and the pIC50 [1] was 7.06.
Work on `N#CC[C@H](C1CCC1)n1cc(-c2ncnc3[nH]ccc23)c(N)n1` [Example 27, (R)-3-(3-amino-4-(7H-pyrrolo[2,3-d]pyrimidin-4-yl)-1H-pyrazol-1-yl)-3-cyclobutylpropionitrile] yielded an IC50 (ROCK1) of under 5 nM, an IC50 (ROCK2) of under 5 nM and a pIC50 [1] of 7.02.
Work on `N#CC[C@@H](C1CCC1)n1cc(-c2ncnc3[nH]ccc23)c(N)n1` [Example 28, (S)-3-(3-amino-4-(7H-pyrrolo[2,3-d]pyrimidin-4-yl)-1H-pyrazol-1-yl)-3-cyclobutylpropionitrile] yielded an IC50 (ROCK1) of under 5 nM, an IC50 (ROCK2) of under 5 nM and a pIC50 [1] of 6.92.
In the case of `N#CC[C@H](C1CCCCC1)n1cc(-c2ncnc3[nH]ccc23)c(N)n1` [Example 29, (R)-3-(3-amino-4-(7H-pyrrolo[2,3-d]pyrimidin-4-yl)-1H-pyrazol-1-yl)-3-cyclohexylpropionitrile], the IC50 (ROCK1) was under 5 nM, the IC50 (ROCK2) was under 5 nM and the pIC50 [1] was 6.97. For the same molecule, the intraocular pressure [2] was “significantly decreased”.
`N#CC[C@@H](C1CCCCC1)n1cc(-c2ncnc3[nH]ccc23)c(N)n1` [Example 30, (S)-3-(3-amino-4-(7H-pyrrolo[2,3-d]pyrimidin-4-yl)-1H-pyrazol-1-yl)-3-cyclohexylpropionitrile] gave an IC50 (ROCK1) of under 5 nM, an IC50 (ROCK2) of under 5 nM and a pIC50 [1] of 6.74.
